Laboratory results as given in patent US20240409878A1, “SYSTEM AND METHOD FOR PRESERVING ALGAE” (Macro Oceans Inc., priority 2023, published 2024).

System: algae sample
Experiment: preservation of an algae sample in a preserving solution
Set-up: species or system algae (e.g., sugar kelp, ribbon kelp, bull kelp, brown alga)
Conditions: for preservation of the algae by the preserving solution: for the target preserving duration; for critical preservation solution concentration: temperature excursions between 0° F. and 140° F., wet mass basis relative to algae mass
From the text: The critical preservation solution concentration can depend on the amount of time the algae sample is to be preserved for, a preservation temperature, an algae species (or other taxonomical rank such as phylum, class, order, family, genus, intermediate ranks therebetween associated with the algae), humidity, moisture content, wet mass content of the algae sample (e.g., composition of the wet mass of the algae sample), dry mass content of the algae sample (e.g., composition of the dry mass of the algae sample), and/or other suitable. […] However, other critical values can be determined and/or arrived at (e.g., by controlling temperature excursions particularly high temperature range, for different types of algae, using a mixture of preserving agents to reduce the concentration of any single preserving agent, based on the amount of time to preserve the algae, etc.).
Preserving the received algae sample S300 preferably functions to extend a lifetime of the algae sample without significant degradation of the algae sample and/or products thereof or derived therefrom. S300 can preserve an as received algae sample (e.g., from S100, fresh harvested algae sample, etc.), a processed algae sample (e.g., from S200, an algae sample that was received after one or more processing steps such as in S200 or S400 has been performed, etc.), a previously preserved algae sample (e.g., preserved according to S300, preserved in a manner different from S300, dried algae sample, etc.), and/or any suitable algae sample.
The algae sample is typically not agitated (e.g., mixed) during (e.g., throughout) preservation (e.g., to simplify the preservation process). Alternatively stated, the algae sample is preferably mixed at most only once (e.g., at the beginning of S300 to homogenize the preserving solution and algae sample) and remains unmixed thereafter. However, the algae sample can be agitated during preservation (e.g., according to a schedule, at predetermined times, at a predetermined frequency, etc.).
The algae sample is typically preserved at approximately room temperature (e.g., an ambient temperature of an environment the algae sample is stored at). For instance, the algae sample can be preserved at a temperature between about 50° F. to 110° F. However, the algae sample can be stored at an elevated temperature (e.g., >110° F.), at a refrigeration temperature (e.g., 30-50° F.), freezing temperature (e.g., <about 30° F.), and/or at any suitable temperature. In some variants, the preserved algae sample can undergo temperature excursions as cold as about 0° F. and as high as 140° F. However, additionally or alternatively, the temperature can be controlled to within a target temperature range (e.g., a preservation temperature, a preservation temperature excursion range, etc.).
The algae sample is typically not fully sealed during preservation (e.g., evaporation of solvent, preservative, etc. can occur such as because the sample is loosely covered). […] For example, the algae sample can be preserved in a container where a lid is placed on the container to close the container but where the lid need not form a seal (e.g., is not a hermetic lid).

CCO [alcohol] was tested, and the “preservation duration before product degradation, mold growth, etc. was detected” value (5% alcohol solution, target about 1 year of preservation) was “about 2 months”, the “preservation of the algae by the preserving solution” value (“preservation of the algae” below) (less than 8% alcohol (e.g., 1%, 3%, 5%)) was “did not preserve the algae” and the “critical preservation solution concentration” value (preserve for 2 months or less) was “at least 5 wt %”. The “critical preservation solution concentration” value (preserve for 12 months or less) was “at least 8 wt %”.
With O=C([O-])[O-].[Na+].[Na+] [sodium carbonate] the “preservation of the algae” value (less than 9% carbonate (e.g., 5%)) was “did not preserve the algae” and the “critical preservation solution concentration” value (preserve for 2 months or less) was at least 9 wt %.
In the case of benzoate, the “preservation of the algae” value (less than 0.5% benzoate (e.g., 0.1%)) is reported as “did not preserve the algae”.
